Experimental data as given in patent US20210275657A1, “NEOANTIGENS AND USES THEREOF” (BioNTech US Inc., priority 2018, published 2021).
Like-named read-outs stand apart in the source and are kept apart here. Where a SMILES comes first, the peptide text is derived from it. Where no end group is shown, it is not given here.

Legend:
[1] = for Solubility in 0.5 mM SS in D5W w/ 4% DMSO: 0.5 mM sodium succinate in D5W; for Solubility in 0.5 mM SS in D5W w/ 4% DMSO / Solubility in […] SS in D5W w/o DMSO / Solubility in […] SS in D5W w/ 4% DMSO: no polyICLC; for Solubility in […] SS in D5W w/o DMSO / Solubility in Poly ICLC + 5 mM SS in D5W w/o DMSO / Solubility in Poly ICLC + […] SS in D5W w/o DMSO: no DMSO; for Solubility in […] SS in D5W w/ 4% DMSO: […] sodium succinate in D5W; for solubility: without DMSO; for solubility in low SS: lower SS concentration ([…] SS/D5W); for solubility in 5 mM SS: 5 mM SS (higher SS concentration) in D5W
Description: All buffers were prepared daily. […] Peptides were weighed into 15 mL or 50 mL conical tubes using a Mettler Toledo XP105 Delta Mass analytical balance and the actual gross weight was recorded and used to determine how much DMSO to obtain 50 mg/mL. The calculation is shown below:
DMSO (μL)=(Actual gross weight (mg)*264 μl)/(Target gross weight (mg)) Equation 4.
The stock was then diluted to 2 mg/mLL (1 part DMSO stock, 24 parts buffer) in the appropriate formulation buffer.
Peptides weights and percent content were calculated as described above and the appropriate buffer was added directly to the peptides. The target gross weight calculated using Eq. 3 and the volume of buffer used to obtain 2 mg/mL peptide was calculated using Equation 5.
Buffer (ml)=(Actual gross weight (mg)*6.6 mL)/(Target gross weight (mg)) Equation 5.
Peptides were further diluted 1:4 with buffer to obtain 0.4 mg/mL or, only when indicated, was buffer added directly to the dry peptide to obtain 0.4 mg/mL. In the latter case, Equation 6 to determine the appropriate volume to add.
Buffer (ml)=(Actual gross weight (mg)*33 mL)/(Target gross weight (mg)) Equation 6.
The peptides were dissolved by inverting the conical tubes and not by sonicating or vortexing them.
To pool 5 peptides, equal volume from each 2 mg/mL stock was combined to obtain 0.4 mg/mL of each peptide. In the case of pools with less than 5 peptides, equal volumes of the peptides were combined then the solution was diluted with the appropriate buffer to obtain 0.4 mg/mL of each peptide. The pools were inverted 3-5 times to mix. The formulated peptides were transferred to glass vials to visualize solubility. Photographs were taken every two hours to note any changes in appearance.
Pools were combined at a 3:1 ratio of peptide to polyICLC using 150 μL polyICLC with 450 μL peptide pool in a 2 mL glass vial. The solution was inverted 3-5 times to mix and photographs were taken every two hours for 6 hours to note any changes in appearance. All pH measurements were made using a Mettler Toledo inLab Micro pH meter, which was calibrated every day before use. 100 μL of the sample being analyzed was removed and added to a microcentrifuge tube to measure the pH. The sample was then discarded. Samples by UPLC-MS (Waters Acquity H-Class with an Acquity QDa mass spectrometer). A 2 μL injection of each sample was analyzed in duplicate using an 8 minute gradient from 10:90 solvent A:B to 50:50 solvent A:B (A:0.1% TFA/water, B: 0.1% TFA:acetonitrile).

indicated HLA alleles = experiment: Stability of mutant EGFR neopeptides with the HLA alleles; assay type: binding, human; conditions: EGFR_T790M
Description: Multiple peptides containing neoepitopes in the table below were either expressed or loaded onto antigen presenting cells. Mass spectrometry was then performed and the affinity of the neoepitopes for indicated HLA alleles were determined, and the stability of the neoepitopes with the HLA alleles were determined.

[2] = 0.4 mg/mL in […] SS, after 6 hours

## LHFCRSSIMKPKRDGYMFLKAESKI [Peptide 9]
[1]; 4% DMSO
  Solubility in 0.5 mM SS in D5W w/ 4% DMSO: Yes
  Solubility in […] SS in D5W w/ 4% DMSO: Yes
[1]
  Solubility in […] SS in D5W w/o DMSO: Yes
[1]; with polyICLC
  Solubility in Poly ICLC + 5 mM SS in D5W w/o DMSO: Yes
[1]; with polyICLC, 4% DMSO
  Solubility in Poly ICLC + […] SS in D5W w/ 4% DMSO: Yes

## KAESKIMFATLQRSSLWCL [Peptide L11d]
[1]; [2]
  solubility: soluble

## YMFLKAESKIMFATLQRSS [Peptide 11c]
[1]; 4% DMSO
  Solubility in 0.5 mM SS in D5W w/ 4% DMSO: Yes
  Solubility in […] SS in D5W w/ 4% DMSO: Yes
[1]; with polyICLC, 4% DMSO
  Solubility in Poly ICLC + […] SS in D5W w/ 4% DMSO: No

## CSCC[C@H](N)C(=O)N[C@@H](Cc1ccccc1)C(=O)N[C@@H](C)C(=O)N[C@H](C(=O)N[C@@H](CC(C)C)C(=O)N[C@@H](CCC(N)=O)C(=O)N[C@@H](CCCNC(=N)N)C(=O)N[C@@H](CO)C(=O)N[C@@H](CO)C(=O)N[C@@H](CC(C)C)C(=O)N[C@@H](Cc1c[nH]c2ccccc12)C(=O)N[C@@H](CS)C(=O)N[C@@H](CC(C)C)C(=O)N[C@@H](CS)C(=O)O)[C@@H](C)O [Peptide L12c]
[1]; 4% DMSO
  Solubility in […] SS in D5W w/ 4% DMSO: No

## CC[C@H](C)[C@H](NC(=O)[C@H](CCCCN)NC(=O)[C@H](CO)NC(=O)[C@@H](N)CCC(=O)O)C(=O)N[C@@H](CCSC)C(=O)N[C@@H](Cc1ccccc1)C(=O)N[C@@H](C)C(=O)N[C@H](C(=O)N[C@@H](CC(C)C)C(=O)N[C@@H](CCC(N)=O)C(=O)N[C@@H](CCCNC(=N)N)C(=O)N[C@@H](CO)C(=O)N[C@@H](CO)C(=O)N[C@@H](CC(C)C)C(=O)O)[C@@H](C)O [Peptide L11i]
[1]; 0.4 mg/mL, D5W with all SS concentrations tested
  solubility: soluble
[1]; 2 mg/mL in the higher SS concentration, D5W
  solubility: Some precipitation
[1]
  Solubility in […] SS in D5W w/o DMSO: Yes
  solubility in low SS: soluble
[1]; with polyICLC
  Solubility in Poly ICLC + […] SS in D5W w/o DMSO: Yes

## GPPARVPAVPFDLHFCRSSIMKPKRD [Peptide 8]
[1]; 4% DMSO
  Solubility in 0.5 mM SS in D5W w/ 4% DMSO: Yes
  Solubility in […] SS in D5W w/ 4% DMSO: Yes
[1]
  Solubility in […] SS in D5W w/o DMSO: Yes
[1]; with polyICLC, 0.5 mM SS in D5W, 4% DMSO
  Solubility in Poly ICLC + 0.5 mM SS in D5W w/ 4% DMSO: Yes
[1]; with polyICLC
  Solubility in Poly ICLC + 5 mM SS in D5W w/o DMSO: Yes
  Solubility in Poly ICLC + […] SS in D5W w/o DMSO: Yes
[1]; with polyICLC, 4% DMSO
  Solubility in Poly ICLC + […] SS in D5W w/ 4% DMSO: Yes

## FLKAESKIMFATLQRSSLWCL [Peptide 11]
[1]; with polyICLC, 4% DMSO
  Solubility in Poly ICLC + […] SS in D5W w/ 4% DMSO: No

## CC[C@H](C)[C@H](N)C(=O)N[C@@H](CCSC)C(=O)N[C@@H](CCC(N)=O)C(=O)N[C@@H](CC(C)C)C(=O)N[C@@H](CCSC)C(=O)N1CCC[C@H]1C(=O)N[C@@H](Cc1ccccc1)C(=O)NCC(=O)N[C@@H](CS)C(=O)N[C@@H](CC(C)C)C(=O)O
Indicated HLA alleles; HLA A02.01
  Stability (1/2 hr): 0.5156 h
Indicated HLA alleles; HLA A24.02
  Stability (1/2 hr): 0 h
Indicated HLA alleles; HLA B08.01
  Stability (1/2 hr): 0 h

## FLKAESKIMFATLQRS [Peptide L11f]
[1]; [2]
  solubility: soluble
[1]
  solubility in 5 mM SS: not soluble
  Solubility in […] SS in D5W w/o DMSO: Yes
  solubility in low SS: soluble
[1]; 4% DMSO
  Solubility in […] SS in D5W w/ 4% DMSO: Yes
[1]; with polyICLC
  Solubility in Poly ICLC + […] SS in D5W w/o DMSO: Yes

## CC[C@H](C)[C@H](NC(=O)[C@H](CC(C)C)NC(=O)[C@H](CCC(N)=O)NC(=O)[C@@H](N)C(C)C)C(=O)N[C@@H](CCSC)C(=O)N[C@@H](CCC(N)=O)C(=O)N[C@@H](CC(C)C)C(=O)N[C@@H](CCSC)C(=O)N1CCC[C@H]1C(=O)N[C@@H](Cc1ccccc1)C(=O)O
Indicated HLA alleles; HLA A02.01
  Stability (1/2 hr): 0 h
Indicated HLA alleles; HLA A24.02
  Stability (1/2 hr): 0 h
Indicated HLA alleles; HLA B08.01
  Stability (1/2 hr): 0 h

## CC[C@H](C)[C@H](NC(=O)[C@H](CCCCN)NC(=O)[C@H](CO)NC(=O)[C@H](CCC(=O)O)NC(=O)[C@H](C)NC(=O)[C@H](CCCCN)NC(=O)[C@H](CC(C)C)NC(=O)[C@H](Cc1ccccc1)NC(=O)[C@H](CCSC)NC(=O)[C@H](Cc1ccc(O)cc1)NC(=O)CNC(=O)[C@H](CC(=O)O)NC(=O)[C@H](CCCNC(=N)N)NC(=O)[C@H](CCCCN)NC(=O)[C@@H]1CCCN1C(=O)[C@@H](N)CCCCN)C(=O)N[C@@H](CCSC)C(=O)N[C@@H](Cc1ccccc1)C(=O)N[C@@H](C)C(=O)N[C@H](C(=O)N[C@@H](CC(C)C)C(=O)N[C@@H](CCC(N)=O)C(=O)N[C@@H](CCCNC(=N)N)C(=O)N[C@@H](CO)C(=O)N[C@@H](CO)C(=O)N[C@@H](CC(C)C)C(=O)N[C@@H](Cc1c[nH]c2ccccc12)C(=O)N[C@@H](CS)C(=O)N[C@@H](CC(C)C)C(=O)N[C@@H](CS)C(=O)N[C@@H](CO)C(=O)N[C@@H](CC(N)=O)C(=O)N[C@@H](Cc1c[nH]cn1)C(=O)O)[C@@H](C)O [Peptide L15] (H-KPKRDGYMFLKAESKIMFATLQRSSLWCLCSNH-OH; N-terminus and C-terminus assumed)
[1]; [2]
  solubility: soluble
[1]
  solubility in 5 mM SS: not soluble
  Solubility in […] SS in D5W w/o DMSO: Yes
  solubility in low SS: soluble
[1]; with polyICLC
  Solubility in Poly ICLC + […] SS in D5W w/o DMSO: Yes

## CC(C)C[C@H](NC(=O)[C@H](CS)NC(=O)[C@H](Cc1c[nH]c2ccccc12)NC(=O)[C@H](CC(C)C)NC(=O)[C@H](CO)NC(=O)[C@H](CO)NC(=O)[C@H](CCCNC(=N)N)NC(=O)[C@H](CCC(N)=O)NC(=O)[C@H](CC(C)C)NC(=O)[C@@H](N)[C@@H](C)O)C(=O)N[C@@H](CS)C(=O)N[C@@H](CO)C(=O)N[C@@H](CC(N)=O)C(=O)N[C@@H](Cc1c[nH]cn1)C(=O)O [Peptide L12d] (H-TLQRSSLWCLCSNH-OH)
[1]; 5 mM SS, after 6 hours
  solubility: soluble
[1]
  Solubility in […] SS in D5W w/o DMSO: Yes
[1]; 4% DMSO
  Solubility in […] SS in D5W w/ 4% DMSO: Yes
[1]; with polyICLC, 4% DMSO
  Solubility in Poly ICLC + 5 mM SS in D5W w/ 4% DMSO: Yes
  Solubility in Poly ICLC + […] SS in D5W w/ 4% DMSO: Yes

## GPPARVPAVPFDLHFCRSSIMKPKRD [Peptide L8]
[1]; [2]
  solubility: soluble
[1]
  solubility in 5 mM SS: soluble
[1]; 5 mM SS, after 6 hours
  solubility: soluble

## KPKRDGYMFLKAESKI [Peptide L10c]
[1]; [2]
  solubility: soluble
[1]
  solubility in 5 mM SS: soluble
  Solubility in […] SS in D5W w/o DMSO: Yes
[1]; 5 mM SS, after 6 hours
  solubility: soluble
[1]; 4% DMSO
  Solubility in […] SS in D5W w/ 4% DMSO: Yes
[1]; with polyICLC, 4% DMSO
  Solubility in Poly ICLC + 5 mM SS in D5W w/ 4% DMSO: Yes
[1]; with polyICLC
  Solubility in Poly ICLC + 5 mM SS in D5W w/o DMSO: Yes
  Solubility in Poly ICLC + […] SS in D5W w/o DMSO: Yes

## CSCC[C@H](N)C(=O)N[C@@H](Cc1ccccc1)C(=O)N[C@@H](C)C(=O)N[C@H](C(=O)N[C@@H](CC(C)C)C(=O)N[C@@H](CCC(N)=O)C(=O)N[C@@H](CCCNC(=N)N)C(=O)N[C@@H](CO)C(=O)N[C@@H](CO)C(=O)N[C@@H](CC(C)C)C(=O)N[C@@H](Cc1c[nH]c2ccccc12)C(=O)N[C@@H](CS)C(=O)N[C@@H](CC(C)C)C(=O)N[C@@H](CS)C(=O)N[C@@H](CO)C(=O)N[C@@H](CC(N)=O)C(=O)N[C@@H](Cc1c[nH]cn1)C(=O)O)[C@@H](C)O [Peptide 12b] (H-MFATLQRSSLWCLCSNH-OH)
[1]; 4% DMSO
  Solubility in 0.5 mM SS in D5W w/ 4% DMSO: Yes
  Solubility in […] SS in D5W w/ 4% DMSO: Yes
[1]; with polyICLC, 4% DMSO
  Solubility in Poly ICLC + […] SS in D5W w/ 4% DMSO: No

## ESKIMFATLQRSSLWC [Peptide L11g]
[1]; 4% DMSO
  Solubility in […] SS in D5W w/ 4% DMSO: Yes
[1]; with polyICLC, 4% DMSO
  Solubility in Poly ICLC + […] SS in D5W w/ 4% DMSO: No

## LHFCRSSIMKPKRDGYMFLKAESKI [Peptide L9]
[1]; [2]
  solubility: soluble
[1]
  solubility in 5 mM SS: soluble
[1]; 5 mM SS, after 6 hours
  solubility: soluble

## KPKRDGYMFLKAESKIMFAT [Peptide 10b]
[1]; 4% DMSO
  Solubility in 0.5 mM SS in D5W w/ 4% DMSO: Yes
  Solubility in […] SS in D5W w/ 4% DMSO: Yes
[1]; with polyICLC, 4% DMSO
  Solubility in Poly ICLC + […] SS in D5W w/ 4% DMSO: No

## KPKRDGYMFLKAESKIMFATLQR [Peptide 10]
[1]; 4% DMSO
  Solubility in […] SS in D5W w/ 4% DMSO: Yes
[1]; with polyICLC, 4% DMSO
  Solubility in Poly ICLC + 5 mM SS in D5W w/ 4% DMSO: No
  Solubility in Poly ICLC + […] SS in D5W w/ 4% DMSO: No

## DGYMFLKAESKIMFAT [Peptide L11e]
[1]; 4% DMSO
  Solubility in […] SS in D5W w/ 4% DMSO: No

## KAESKIMFATLQRSSLWCL [Peptide 11d]
[1]; 4% DMSO
  Solubility in 0.5 mM SS in D5W w/ 4% DMSO: Yes
  Solubility in […] SS in D5W w/ 4% DMSO: Yes
[1]
  Solubility in […] SS in D5W w/o DMSO: Yes
[1]; with polyICLC
  Solubility in Poly ICLC + […] SS in D5W w/o DMSO: Yes
